Laboratory results as given in PubChem BioAssay (NCI).
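Following 48 hours of exposure in 96-well plates, responses at five concentrations were used to interpolate endpoints linearly. TGI: concentration producing complete growth inhibition.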

Columns and labels:
Experiment in all cases: NCI tumour cell line growth inhibition, 48 h
[1] = tested on: BT-549 breast
[2] = tested on: DU-145 prostate
[3] = tested on: NCI-H522 lung
[4] = tested on: HOP-92 NSCLC
[5] = tested on: MALME-3M melanoma
[6] = tested on: SF-539 CNS
[7] = tested on: TK-10 renal
[8] = tested on: UO-31 renal
[9] = tested on: RPMI-8226 leukemia
[10] = tested on: T-47D breast
[11] = tested on: OVCAR-3 ovarian
[12] = tested on: SF-268 CNS
[13] = tested on: SNB-75 CNS
[14] = tested on: SW-620 colon
[15] = tested on: A498 renal
[16] = tested on: LOX IMVI melanoma
[17] = tested on: KM12 colon
[18] = tested on: HCT-116 colon
[19] = tested on: NCI/ADR-RES ovarian
[20] = tested on: MDA-MB-435
[21] = tested on: PC-3 prostate
[22] = tested on: SNB-19 CNS
[23] = tested on: SK-MEL-2 melanoma
[24] = tested on: HS 578T breast
[25] = tested on: HCT-15 colon
[26] = tested on: MDA-MB-231 breast
[27] = tested on: COLO 205 colon
[28] = tested on: ACHN renal
[29] = tested on: NCI-H226 lung
[30] = tested on: NCI-H460 lung
[31] = tested on: NCI-H23 lung
[32] = tested on: CAKI-1 renal
[33] = tested on: HOP-62 NSCLC
[34] = tested on: SF-295 CNS
[35] = tested on: U251 CNS
[36] = tested on: EKVX NSCLC
[37] = tested on: HCC-2998 colon
[38] = tested on: M14 melanoma
[39] = tested on: K-562 leukemia
[40] = tested on: SK-MEL-28 melanoma
[41] = tested on: HT29 colon
[42] = tested on: CCRF-CEM leukemia
[43] = tested on: OVCAR-8 ovarian
[44] = tested on: SK-OV-3 ovarian
[45] = tested on: SK-MEL-5 melanoma
[46] = tested on: UACC-62 melanoma
[47] = tested on: MOLT-4 leukemia
[48] = tested on: SN12C renal
[49] = tested on: MDA-N
[50] = tested on: A549 NSCLC
[51] = tested on: MCF7 breast
[52] = tested on: HL-60(TB) leukemia
[53] = tested on: IGROV1 ovarian
[54] = tested on: 786-0 renal
[55] = tested on: OVCAR-5 ovarian
[56] = tested on: UACC-257 melanoma
[57] = tested on: RXF 393 renal
[58] = tested on: SR leukemia
[59] = tested on: OVCAR-4 ovarian

Measured: TGI

CNC(=O)CCCNC(=O)CCCC(=O)N(C)C
not listed: [57] | [58] | [59]
> 100 µM: all other assays above

c1c[nH]c(CN2CCOCC2)n1
not listed: [37]
> 100 µM: all other assays above
